Experimental data published in US20240279233A1, “MACROCYCLIC TAK1 INHIBITORS” (Aqilion AB, priority 2021, published 2024).
Converted amounts (≈) assume the structure as drawn. Read-outs that look alike come from different tables or passages of the source.

Columns and labels:
[1] = from COC(=O)c1cccc2nc(NC(=O)c3cccc(C(=O)O)c3)n(CCCCCN)c12; amide bond; 14-membered ring; HATU/DIEA; 16.0 h; 2 steps
[2] = Solubility assay in phosphate buffer; conditions: phosphate buffer, pH 7.4, aqueous buffer, kinetic from dmso stock, Solubility (μM), phosphate buffer 100 mM, pH 7.4, room temperature, 20-24 h, LC-UV
Description: (§1) The aqueous solubility of selected example compounds was determined as follows; 6 μL of DMSO stock solution of the selected example was added to 594 μL phosphate buffer (100 mM, pH 7.4). The resulting mixture was equilibrated over night (20-24 h, Alligator Shaker, room temperature). The mixture was then filtered (Millex LH 0.45 μm) and the concentration/solubility was determined by LC-UV quantification.

[3] = test system: phosphorylated p38 (TAK1 activity) in THP-1 cells; experiment: Cell-based p38 phosphorylation assay (Western blot); conditions: for IC50: read-out: IC50 (nM) in phospho-p38 cell assay
Description: The cellular activity of example compounds 2, 3 and 9 and the comparative example (i.e. takinib) for inhibiting TAK1 activity was evaluated using an in vitro functional cell assay.
THP-1 cells were incubated at 37° C. in 5% CO2. THP-1 cells were cultured in RPMI 1640, 10% FBS, 1% Penicillin-Streptomycin.
THP-1 cells were treated with 100 nM phorbol 12-myristate 13-acetate (PMA) to induce macrophage differentiation and seeded at the density of 1×10^6 cells/well (2 ml/well in a 6-well plate) for 72 hours. The cell culture media was then replaced with PMA-free media and incubated for further 48 hours. Test compounds were prepared as 200×final assay concentration stocks in DMSO (final concentrations in the assay were 10-0.03 μM in 0.5% DMSO, details provided below). Following THP-1 cell differentiation, cells were treated with different concentrations of the control compound NG25 (CAS No.:1315355-93-1, Tan L, et al. J Med Chem. 2015, 58(1), 183-96) or test compounds (10 μl/well) for 30 minutes followed by 200 ng/ml LPS for 30 minutes.
Test items were kept as 10 mM stock solutions in 100% DMSO. The serial dilution of compounds was prepared as 200× serial dilutions of desired final concentration in […] to reach 0.5% DMSO working solution (see Table 3 below).
Dilution series of compounds from 10 μM final highest concentration to 0.03 μM final low concentration were first made in DMSO (see Table 3), 10 μl of each dilution was mixed into 2 ml of cell cultures (0.5% DMSO per well).
10 μl of DMSO was added to the control. All plates were incubated at 37° C., 5% CO2 for 30 minutes and LPS was added to a final concentration of 200 ng/ml.
For Western blot analysis, cells were lysed (50 mM Tris, 150 mM NaCl, 1 mM EDTA, 1% Triton-X100, 1 mM DTT, complete protease and PhosStop phosphatase inhibitor) after indicated treatment and run on NuPAGE Bis-Tris gel 4-12% gradient (Invitrogen). Following transfer to PVDF membrane and blocking in 5% BSA in PBST, membranes were incubated with primary antibody overnight (specific for phosphorylated p38; Cell Signaling, 1:1,000 dilution). After incubation with species-specific secondary antibodies for 1 hour at room temperature, the membranes were visualized with the ECL SuperSignal™ West Pico PLUS Chemiluminescent Substrate (Thermo Scientific). The images were captured with iBright Western Blot Imaging Systems (Invitrogen) and quantified with ImageJ software (Java-based image processing program developed at the National Institutes of Health and the Laboratory for Optical and Computational Instrumentation). Anti-β-actin antibodies were used as the loading control for whole-cell extracts in all samples (anti-β actin; Sigma-Aldrich, 1:5000 dilution, 1 hour incubation).
For immunoblotting, cells were lysed directly in six-well plates by incubating for 30 min at 4° C. in 60 μl Triton lysis buffer. The lysates were centrifuged for 15 minutes at 13,000×g at 4° C. Equal amount of protein from each supernatants were resuspended with 5× sample buffer. Samples were boiled for 10 minutes and then resolved by 4-12% SDS-PAGE (100 V). Proteins were transferred from gel to PVDF membranes ([…] pore size) following the recommended setting (90 minutes, 85 V). […]

[4] = amide bond, 14-membered ring
[5] = target: human recombinant TAK1-TAB1 Kinase (TAK1 (1-303) and TAB1 (437-end)) (Homo sapiens (Human), UniProt O43318); experiment: TAK1 biochemical ADP-Glo kinase assay; conditions: MBP substrate
In short: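 Inhibition of human recombinant TAK1-TAB1 kinase was measured with a Promega ADP-Glo luminescence assay in 384-well plates. Compounds in 5% DMSO were pre-incubated 10 min with 2 μl TAK1-TAB1 (7.5 ng/μl) in buffer of Tris pH 7.5, MgCl2, DTT and BSA. MBP substrate and ATP were then added for 1 hour at room temperature. ADP-Glo reagent and kinase detection substrate followed, luminescence was read on an Envision, and IC50 came from non-linear regression.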

[6] = pH 7.4
Description: as §1

[7] = Homo sapiens, 0.5 h, PMA-differentiated THP-1 cells, compound 30 minutes then 200 ng/ml LPS 30 minutes
[8] = 10 μM ATP, read-out: TAK1 Mean IC50 (nM) @ 10 μM ATP
[9] = PMA-differentiated THP-1 cells, compound 30 minutes then 200 ng/ml LPS 30 minutes

Sequence of human recombinant TAK1-TAB1 Kinase (TAK1 (1-303) and TAB1 (437-end)) (O43318 other isoform, or with tags, fused parts or gaps): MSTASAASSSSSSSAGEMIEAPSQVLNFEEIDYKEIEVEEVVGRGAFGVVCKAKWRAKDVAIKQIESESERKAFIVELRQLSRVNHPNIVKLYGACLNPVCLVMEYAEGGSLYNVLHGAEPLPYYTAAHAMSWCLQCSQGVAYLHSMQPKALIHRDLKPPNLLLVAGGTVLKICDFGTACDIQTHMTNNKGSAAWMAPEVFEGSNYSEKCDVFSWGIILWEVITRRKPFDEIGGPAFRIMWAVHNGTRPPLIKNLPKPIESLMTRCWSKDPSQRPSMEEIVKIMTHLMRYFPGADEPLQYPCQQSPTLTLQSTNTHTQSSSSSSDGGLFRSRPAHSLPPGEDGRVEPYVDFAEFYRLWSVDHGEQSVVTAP

Row | solubility [2] [µM] | IC50 [5, 8] [nM] | solubility [6] [µM] | Structure (SMILES) | also measured
1 |  | 4 | 0.9 (≈ 0.378 µg/mL) | COC(=O)c1cccc2nc3n(c12)C(C)CCCCNC(=O)c1cccc(c1)C(=O)N3 (stereo not shown) [Example 7, methyl 11-methyl-3,5-dioxo-1^1H-2,6-diaza-1(2,1)-benzo[d]imidazola-4(1,3)-benzenacycloundecaphane-1^7-carboxylate] | ring closure, isolated yield ([4]; from COC(=O)c1cccc2nc(NC(=O)c3cccc(C(=O)O)c3)n(C(C)CCCCN)c12, HATU/TEA, dioxane, 2.2 mM, 25.0 °C, 16.0 h, 2 steps): 21%
2 |  | 1 | 30.9 (≈ 17.8 µg/mL) | CC1CCCCNC(=O)c2cccc(c2)C(=O)Nc2nc3cccc(C(=O)N4CCN(C(=O)OC(C)(C)C)CC4)c3n21 (stereo not shown) [Example 9, tert-butyl 4-(11-methyl-3,5-dioxo-1^1H-2,6-diaza-1(2,1)-benzo[d]imidazola-4(1,3)-benzenacycloundecaphane-1^7-carbonyl)piperazine-1-carboxylate] | IC50 [3, 9]: 600 nM; potency and efficacy compared with Comparative Example 1 (takinib) ([3]; THP-1 cells, LPS, phospho-p38): greater
3 |  | 9 | 95.0 (≈ 37.3 µg/mL) | O=C1NCCCCCn2c(nc3cccc(C(=O)O)c32)NC(=O)c2cccc1c2 [Example 18, (E)-3,5-dioxo-1^2,1^3-dihydro-1^1H-2,6-diaza-1(2,1)-benzo[d]imidazola-4(1,3)-benzenacycloundecaphane-1^7-carboxylic acid] | 
4 | 0.9 (≈ 0.29 µg/mL) | 17 |  | CCCn1c(NC(=O)c2cccc(C(N)=O)c2)nc2ccccc21 [takinib, N-(1-propyl-1H-benzo[d]imidazol-2-yl)isophthalamide, reference compound] | IC50 (nM) in phospho-p38 cell assay [3, 9]: inactive; IC50 ([5]; 1 mM ATP, read-out: TAK1 Mean IC50 (nM) @ 1 mM ATP): 280 nM

The remaining lines, values behind:

Row | Structure (SMILES) | solubility [2] [µM] | IC50 [5, 8] [nM] | solubility [6] [µM] | also measured
5 | COC(=O)c1cccc2nc3n(c12)CCCCCNC(=O)c1cccc(c1)C(=O)N3 |  |  |  | ring closure, crude yield [1]: 76%
6 | O=C1NCCCCCn2c(nc3ccccc32)NC(=O)c2cccc1c2 [Example 2, 1^1H-2,6-diaza-1(2,1)-benzo[d]imidazola-4(1,3)-benzenacycloundecaphane-3,5-dione] | 0.5 (≈ 0.174 µg/mL) | 3 |  | IC50 [3, 7]: 200 nM; ring closure, isolated yield ([4]; from NCCCCCn1c(NC(=O)c2cccc(C(=O)O)c2)nc2ccccc21, HATU/DIEA, DMF, 51.0 mM, 25.0 °C, 16.0 h): 2%
7 | CN1CCN(Cc2ccc3c(c2)nc2n3CCCCCNC(=O)c3cccc(c3)C(=O)N2)CC1 [Example 3, 1^5-((4-methylpiperazin-1-yl)methyl)-1^1H-2,6-diaza-1(2,1)-benzo[d]imidazola-4(1,3)-benzenacycloundecaphane-3,5-dione] | 31.5 (≈ 14.5 µg/mL) | 1 |  | IC50 [3, 7]: 4.5 nM; ring closure, isolated yield ([4]; from CN1CCN(Cc2ccc3c(c2)nc(NC(=O)c2cccc(C(=O)O)c2)n3CCCCCN)CC1, HATU/DIEA, DMF, 2.4 mM, 1.17 h): 13%
